{"source": "paper PMC10066365", "about": "“Nemacol is a small molecule inhibitor of C. elegans vesicular acetylcholine transporter with anthelmintic potential” (Nature Communications, 2023)", "system": "C. elegans", "test": "C. elegans motor phenotype scoring on solid media (Punc/jerky-unc, coiled, paralyzed), wild-type young adults", "format": "in vivo, Caenorhabditis elegans", "conditions": "for Fraction No Phenotype / Fraction Parayzed / Fraction Coiled / Fraction Jerky-Unc / Fraction Coiled, Averages of 3 biological repeats / Fraction Jerky-Unc, Averages of 3 biological repeats / Fraction No Phenotype, Averages of 3 biological repeats / Fraction Parayzed, Averages of 3 biological repeats / C1 (loose coil) worm count / C2 (tight coil) worm count / J (jerky-unc) worm count / NP (no phene) worm count / P (paralyzed) worm count: 60 min; for rep 1 atypical locomotion / rep 1 coiled / rep 1 no phene / rep 1 paralyzed: N2, count of 20 animals", "key": {"[1]": {"conditions": "N2, 30 µM, adult worms, average of 3 biological repeats"}, "[2]": {"conditions": "N2, 60 µM, adult worms, average of 3 biological repeats"}, "[3]": {"conditions": "N2 series 1 (run with e245, md414), 15 µM"}, "[4]": {"conditions": "N2 series 1 (run with e245, md414), 15 µM, single Bio Rep"}, "[5]": {"conditions": "N2 series 1 (run with e245, md414), 30 µM"}, "[6]": {"conditions": "N2 series 1 (run with e245, md414), 30 µM, single Bio Rep"}, "[7]": {"conditions": "N2 series 1 (run with e245, md414), 60 µM"}, "[8]": {"conditions": "N2 series 1 (run with e245, md414), 60 µM, single Bio Rep"}, "[9]": {"conditions": "N2 series 2 (run with e327), 15 µM"}, "[10]": {"conditions": "N2 series 2 (run with e327), 15 µM, single Bio Rep"}, "[11]": {"conditions": "N2 series 2 (run with e327), 30 µM"}, "[12]": {"conditions": "N2 series 2 (run with e327), 30 µM, single Bio Rep"}, "[13]": {"conditions": "N2 series 2 (run with e327), 60 µM"}, "[14]": {"conditions": "N2 series 2 (run with e327), 60 µM, single Bio Rep"}}, "note": "Values joined by “and” are separate entries in the source; they are usually repeats but may differ in a detail not shown here. Equal values may be shown once."}
{"smiles": "O=[N+]([O-])c1ccc(N2CCN(CC3CCCCC3)CC2)cc1", "note": "[Nemacol-1]", "values": [{"measurement": "Fraction No Phenotype", "setting": "[1]", "value": 0.00}, {"measurement": "Fraction Parayzed", "setting": "[1]", "value": 0.23}, {"measurement": "Fraction Coiled", "setting": "[2]", "value": 0.60}, {"measurement": "Fraction Jerky-Unc", "setting": "[2]", "value": 0.10}, {"measurement": "Fraction No Phenotype", "setting": "[2]", "value": 0.00}, {"measurement": "Fraction Parayzed", "setting": "[2]", "value": 0.29}, {"measurement": "rep 1 atypical locomotion", "setting": "conc 3.75", "value": 3}, {"measurement": "rep 1 coiled", "setting": "conc 3.75", "value": 2}, {"measurement": "rep 1 no phene", "setting": "conc 3.75", "value": 15}, {"measurement": "rep 1 paralyzed", "setting": "conc 3.75", "value": 0}, {"measurement": "rep 1 atypical locomotion", "setting": "conc 15", "value": 3}, {"measurement": "rep 1 coiled", "setting": "conc 15", "value": 4}, {"measurement": "rep 1 no phene", "setting": "conc 15", "value": 7}, {"measurement": "rep 1 paralyzed", "setting": "conc 15", "value": 6}, {"measurement": "rep 1 atypical locomotion", "setting": "conc 60", "value": 2}, {"measurement": "rep 1 coiled", "setting": "conc 60", "value": 3}, {"measurement": "rep 1 no phene", "setting": "conc 60", "value": 0}, {"measurement": "rep 1 paralyzed", "setting": "conc 60", "value": 15}, {"measurement": "Fraction Coiled, Averages of 3 biological repeats", "setting": "[3]", "value": 0.26}, {"measurement": "Fraction Jerky-Unc, Averages of 3 biological repeats", "setting": "[3]", "value": 0.67}, {"measurement": "Fraction No Phenotype, Averages of 3 biological repeats", "setting": "[3]", "value": 0.037}, {"measurement": "Fraction Parayzed, Averages of 3 biological repeats", "setting": "[3]", "value": 0.037}, {"measurement": "C1 (loose coil) worm count", "setting": "[4]", "value": "1 and 2"}, {"measurement": "C2 (tight coil) worm count", "setting": "[4]", "value": "3 and 4"}, {"measurement": "Fraction Coiled", "setting": "[4]", "value": "0.28 and 0.22"}, {"measurement": "Fraction Jerky-Unc", "setting": "[4]", "value": "0.6111 and 0.7222 and 0.6667"}, {"measurement": "J (jerky-unc) worm count", "setting": "[4]", "value": "13 and 11 and 12"}, {"measurement": "Fraction Coiled, Averages of 3 biological repeats", "setting": "[5]", "value": 0.59}, {"measurement": "Fraction Jerky-Unc, Averages of 3 biological repeats", "setting": "[5]", "value": 0.28}, {"measurement": "Fraction No Phenotype, Averages of 3 biological repeats", "setting": "[5]", "value": 0.00}, {"measurement": "Fraction Parayzed, Averages of 3 biological repeats", "setting": "[5]", "value": 0.13}, {"measurement": "C1 (loose coil) worm count", "setting": "[6]", "value": 5}, {"measurement": "C2 (tight coil) worm count", "setting": "[6]", "value": "5 and 7"}, {"measurement": "Fraction Coiled", "setting": "[6]", "value": "0.56 and 0.67"}, {"measurement": "Fraction Jerky-Unc", "setting": "[6]", "value": "0.1667 and 0.3333"}, {"measurement": "Fraction No Phenotype", "setting": "[6]", "value": 0.00}, {"measurement": "J (jerky-unc) worm count", "setting": "[6]", "value": "6 and 3"}, {"measurement": "NP (no phene) worm count", "setting": "[6]", "value": 0}, {"measurement": "Fraction Coiled, Averages of 3 biological repeats", "setting": "[7]", "value": 0.64}, {"measurement": "Fraction Jerky-Unc, Averages of 3 biological repeats", "setting": "[7]", "value": 0.11}, {"measurement": "Fraction No Phenotype, Averages of 3 biological repeats", "setting": "[7]", "value": 0.00}, {"measurement": "Fraction Parayzed, Averages of 3 biological repeats", "setting": "[7]", "value": 0.25}, {"measurement": "C1 (loose coil) worm count", "setting": "[8]", "value": "3 and 4"}, {"measurement": "C2 (tight coil) worm count", "setting": "[8]", "value": "6 and 8"}, {"measurement": "Fraction Coiled", "setting": "[8]", "value": "0.67 and 0.60"}, {"measurement": "Fraction No Phenotype", "setting": "[8]", "value": 0.00}, {"measurement": "NP (no phene) worm count", "setting": "[8]", "value": 0}, {"measurement": "Fraction Coiled, Averages of 3 biological repeats", "setting": "[9]", "value": 0.20}, {"measurement": "Fraction Jerky-Unc, Averages of 3 biological repeats", "setting": "[9]", "value": 0.69}, {"measurement": "Fraction No Phenotype, Averages of 3 biological repeats", "setting": "[9]", "value": 0.11}, {"measurement": "Fraction Parayzed, Averages of 3 biological repeats", "setting": "[9]", "value": 0.00}, {"measurement": "C2 (tight coil) worm count", "setting": "[10]", "value": "3 and 2"}, {"measurement": "Fraction Jerky-Unc", "setting": "[10]", "value": "0.7778 and 0.6667 and 0.6316"}, {"measurement": "Fraction No Phenotype", "setting": "[10]", "value": 0.11}, {"measurement": "Fraction Parayzed", "setting": "[10]", "value": 0}, {"measurement": "J (jerky-unc) worm count", "setting": "[10]", "value": "12 and 14"}, {"measurement": "NP (no phene) worm count", "setting": "[10]", "value": 2}, {"measurement": "P (paralyzed) worm count", "setting": "[10]", "value": 0}, {"measurement": "Fraction Coiled, Averages of 3 biological repeats", "setting": "[11]", "value": 0.49}, {"measurement": "Fraction Jerky-Unc, Averages of 3 biological repeats", "setting": "[11]", "value": 0.36}, {"measurement": "Fraction No Phenotype, Averages of 3 biological repeats", "setting": "[11]", "value": 0.00}, {"measurement": "Fraction Parayzed, Averages of 3 biological repeats", "setting": "[11]", "value": 0.15}, {"measurement": "C2 (tight coil) worm count", "setting": "[12]", "value": "4 and 7 and 6"}, {"measurement": "Fraction No Phenotype", "setting": "[12]", "value": 0.00}, {"measurement": "NP (no phene) worm count", "setting": "[12]", "value": 0}, {"measurement": "Fraction Coiled, Averages of 3 biological repeats", "setting": "[13]", "value": 0.57}, {"measurement": "Fraction Jerky-Unc, Averages of 3 biological repeats", "setting": "[13]", "value": 0.11}, {"measurement": "Fraction No Phenotype, Averages of 3 biological repeats", "setting": "[13]", "value": 0.00}, {"measurement": "Fraction Parayzed, Averages of 3 biological repeats", "setting": "[13]", "value": 0.32}, {"measurement": "C1 (loose coil) worm count", "setting": "[14]", "value": "3 and 4"}, {"measurement": "Fraction Coiled", "setting": "[14]", "value": "0.58 and 0.41 and 0.72"}, {"measurement": "Fraction No Phenotype", "setting": "[14]", "value": 0.00}, {"measurement": "Fraction Parayzed", "setting": "[14]", "value": "0.3158 and 0.3529 and 0.2778"}, {"measurement": "NP (no phene) worm count", "setting": "[14]", "value": 0}, {"measurement": "P (paralyzed) worm count", "setting": "[14]", "value": "6 and 5"}, {"measurement": "fold difference in C. elegans EC50, Vesamicol vs Nemacol-1", "setting": "Vesamicol EC50 higher, Nemacol-1 more potent", "value": 5.4, "unit": "fold"}]}
